According to patent publication US7943660B2, “Inhibitors of the LFA-1/ICAM-1 interaction and uses thereof” (Dominion Pharmakine S.L., priority 2005, dated 2011):

Structure (SMILES) | melting point
CC[C@H](C)C(OCc1ccccc1)[C@H]1[C@H]([N+](=O)[O-])[C@H](c2ccccc2)N[C@@H]1C(=O)NCCC(=O)O (stereo partly drawn) [Compound 1, 3-[(2S,3R,4S,5S)-3-[(2S)-1-(Benzyloxy)-2-methylbutyl]-4-nitro-5-phenylpyrrolidine-2-carboxamido]propanoic acid] | 140 to 141 °C
CC[C@H](C)C(OCc1ccccc1F)[C@H]1[C@H]([N+](=O)[O-])[C@H](c2ccccc2)N[C@@H]1C(=O)NCCC(=O)O (stereo partly drawn) [Compound 3, 3-[(2S,3R,4S,5S)-3-[(2S)-1-(2-Fluorobenzyloxy)-2-methylbutyl]-4-nitro-5-phenylpyrrolidine-2-carboxamido]propanoic acid] | 136 to 138 °C
CC[C@H](C)C(OCc1ccccc1F)[C@H]1[C@H]([N+](=O)[O-])[C@H](c2ccsc2)N[C@@H]1C(=O)NCCC(=O)O (stereo partly drawn) [Compound 4, 3-[(2S,3R,4S,5S)-3-[(2S)-1-(2-Fluorobenzyloxy)-2-methylbutyl]-4-nitro-5-(thiophen-3-yl)pyrrolidine-2-carboxamido]propanoic acid] | 113 to 114 °C
CC[C@H](C)C(OCc1ccccc1)[C@H]1[C@H]([N+](=O)[O-])[C@H](c2ccsc2)N[C@@H]1C(=O)NCCC(=O)O (stereo partly drawn) [Compound 5, 3-[(2S,3R,4S,5S)-3-[(2S)-1-(Benzyloxy)-2-methylbutyl]-4-nitro-5-(thiophen-3-yl)pyrrolidine-2-carboxamido]propanoic acid] | 145 to 146 °C
CC[C@H](C)C(OCc1ccccc1F)[C@H]1[C@H]([N+](=O)[O-])[C@@H](c2cccs2)N[C@@H]1C(=O)NCCC(=O)O (stereo partly drawn) [Compound 6, 3-[(2S,3R,4S,5S)-3-[(2S)-1-(2-Fluorobenzyloxy)-2-methylbutyl]-4-nitro-5-(thiophen-2-yl)pyrrolidine-2-carboxamido]propanoic acid] | 94 to 96 °C
CC[C@H](C)C(OCc1ccccc1)[C@H]1[C@H]([N+](=O)[O-])[C@@H](c2cccs2)N[C@@H]1C(=O)NCCC(=O)O (stereo partly drawn) [Compound 7, 3-[(2S,3R,4S,5S)-3-[(2S)-1-(Benzyloxy)-2-methylbutyl]-4-nitro-5-(thiophen-2-yl)pyrrolidine-2-carboxamido]propanoic acid] | 79 to 80 °C

The next lines start with the values.

melting point | Structure (SMILES)
98 to 100 °C | CC(C)C(OCc1ccccc1)[C@H]1[C@H]([N+](=O)[O-])[C@H](c2cccnc2)N[C@@H]1C(=O)NCCC(=O)O (stereo partly drawn) [Compound 8, 3-[(2S,3R,4S,5S)-3-(1-(Benzyloxy)-2-methylpropyl)-4-nitro-5-(pyridin-3-yl)pyrrolidine-2-carboxamido]propanoic acid]
70 to 72 °C | CC(C)C(OCc1ccccc1)[C@H]1[C@H]([N+](=O)[O-])[C@@H](c2ccco2)N[C@@H]1C(=O)NCCC(=O)O (stereo partly drawn) [Compound 9, 3-[(2S,3R,4S,5S)-3-(1-(Benzyloxy)-2-methylpropyl)-5-(furan-2-yl)-4-nitropyrrolidine-2-carboxamido]propanoic acid]
115.9 to 116.2 °C | CC[C@H](C)C(OCc1ccccc1)[C@@H]1[C@H]([N+](=O)[O-])[C@H](c2ccccc2)N(C(=O)CN)[C@]1(C)C(=O)NCCC(=O)O (stereo partly drawn) [Compound 16, 3-[(2S,3R,4S,5S)-1-(2-Aminoacetyl)-3-[(2S)-1-(benzyloxy)-2-methylbutyl]-2-methyl-4-nitro-5-phenylpyrrolidine-2-carboxamido]propanoic acid]
132.7 to 133.6 °C | CC[C@H](C)C(OCc1ccccc1)[C@@H]1[C@H]([N+](=O)[O-])[C@H](c2ccccc2)N(C(=O)CN)[C@]1(C)C(=O)NCCCC(=O)O (stereo partly drawn) [Compound 17, 4-[(2S,3R,4S,5S)-1-(2-aminoacetyl)-3-[(2S)-1-(benzyloxy)-2-methylbutyl]-2-methyl-4-nitro-5-phenylpyrrolidine-2-carboxamido]butanoic acid]
